These are literature values, as cited in patent US20080260683A1, “Rodenticide” (priority 2004, published 2008).

In the case of `O=c1oc2ccccc2c(O)c1C1CC(c2ccc(-c3ccc(Br)cc3)cc2)Cc2ccccc21` (stereo not shown) [Brodifacoum, brodifacoum], the “solubility in water” value was “insoluble or weakly soluble in water”.
Take `O=c1oc2ccccc2c(O)c1C1CC(c2ccc(OCc3ccc(C(F)(F)F)cc3)cc2)Cc2ccccc21` (stereo not shown) [flocoumafen]: the “solubility in water” value was “insoluble or weakly soluble in water”.
Take `O=c1oc2ccccc2c(O)c1C(CC(O)c1ccc(-c2ccc(Br)cc2)cc1)c1ccccc1` (stereo not shown) [bromadiolone]: the “solubility in water” value is “insoluble or weakly soluble in water”.
Take `O=c1sc2ccccc2c(O)c1C1CC(c2ccc(-c3ccc(Br)cc3)cc2)Cc2ccccc21` (stereo not shown) [difethialone]: the “solubility in water” value was “insoluble or weakly soluble in water”.
